Reference: ChEMBL document CHEMBL5614424, “Natural Product-Inspired Discovery of Naphthoquinone-Furo-Piperidine Derivatives as Novel STAT3 Inhibitors for the Treatment of Triple-Negative Breast Cancer” (J Med Chem, 2024)
Activity calls are given as the source filed them. No cut-off for these calls is given here.

Columns and labels:
MDA-MB-231 [1] = test: Antiproliferative activity against human MDA-MB-231 cells assessed as cell viability incubated for 48 hrs measured after additional incubation with MTT; format: functional, cell-based; settings: MDA-MB-231, 48 h
MDA-MB-468 [2] = test: Antiproliferative activity against human MDA-MB-468 cells assessed as cell viability incubated for 48 hrs measured after additional incubation with MTT; format: functional, cell-based; settings: MDA-MB-468, 48 h
[3] = Antiproliferative activity against human MCF-10A cells assessed as cell viability incubated for 48 hrs measured after additional incubation with MTT; format: toxicity, cell-based
L02 = test: Antiproliferative activity against human L02 cells assessed as cell viability incubated for 48 hrs measured after additional incubation with MTT; format: functional, cell-based; settings: L02, 48 h
[4] = target: Signal transducer and activator of transcription 3 (Homo sapiens) (UniProt P40763); test: Suppression of STAT3 activation in human MDA-MB-231 cell assessed as decrease in phosphorylated STAT3 (p-STAT3 Tyr705) level at 3 uM measured after 24 hrs by Western blot analysis; format: cell-based
[5] = target: Signal transducer and activator of transcription 3 (Homo sapiens) (UniProt P40763); test: Suppression of STAT3 activation in human MDA-MB-468 cell assessed as decrease in phosphorylated STAT3 (p-STAT3 Tyr705) level at 3 uM measured after 24 hrs by Western blot analysis; format: cell-based
[6] = Half life in male rat at 10 mg/kg, po measured upto 24 hrs by LC/MS/MS analysis; format: ADME, organism-based; settings: in vivo
[7] = Half life in male rat at 10 mg/kg, ip measured upto 24 hrs by LC/MS/MS analysis; format: ADME, organism-based; settings: in vivo
[8] = Half life in male rat at 5 mg/kg, iv measured upto 24 hrs by LC/MS/MS analysis; format: ADME, organism-based; settings: in vivo
[9] = AUC(0 to t) in male rat at 10 mg/kg, po measured upto 24 hrs by LC/MS/MS analysis; format: ADME, organism-based; settings: in vivo
[10] = AUC(0 to t) in male rat at 10 mg/kg, ip measured upto 24 hrs by LC/MS/MS analysis; format: ADME, organism-based; settings: in vivo
[11] = AUC(0 to t) in male rat at 5 mg/kg, iv measured upto 24 hrs by LC/MS/MS analysis; format: ADME, organism-based; settings: in vivo
[12] = AUC(0 to infinity) in male rat at 10 mg/kg, po measured upto 24 hrs by LC/MS/MS analysis; format: ADME, organism-based; settings: in vivo
[13] = AUC(0 to infinity) in male rat at 10 mg/kg, ip measured upto 24 hrs by LC/MS/MS analysis; format: ADME, organism-based; settings: in vivo
[14] = AUC(0 to infinity) in male rat at 5 mg/kg, iv measured upto 24 hrs by LC/MS/MS analysis; format: ADME, organism-based; settings: in vivo
[15] = Cmax in male rat at 10 mg/kg, po measured upto 24 hrs by LC/MS/MS analysis; format: ADME, organism-based; settings: in vivo
[16] = Cmax in male rat at 10 mg/kg, ip measured upto 24 hrs by LC/MS/MS analysis; format: ADME, organism-based; settings: in vivo
[17] = Cmax in male rat at 5 mg/kg, iv measured upto 24 hrs by LC/MS/MS analysis; format: ADME, organism-based; settings: in vivo
[18] = Tmax in male rat at 10 mg/kg, po measured upto 24 hrs by LC/MS/MS analysis; format: ADME, organism-based; settings: in vivo
[19] = Tmax in male rat at 10 mg/kg, ip measured upto 24 hrs by LC/MS/MS analysis; format: ADME, organism-based; settings: in vivo
[20] = Tmax in male rat at 5 mg/kg, iv measured upto 24 hrs by LC/MS/MS analysis; format: ADME, organism-based; settings: in vivo
[21] = Oral bioavailability in male rat at 10 mg/kg measured upto 24 hrs by LC/MS/MS analysis; format: ADME, organism-based; settings: in vivo
MDA-MB-231 [22] = test: Decrease in STAT3 level in human MDA-MB-231 cell at 3 uM measured after 24 hrs by Western blot analysis; format: functional, cell-based
MDA-MB-468 [23] = test: Decrease in STAT3 level in human MDA-MB-468 cell at 3 uM measured after 24 hrs by Western blot analysis; format: functional, cell-based

Chain of Signal transducer and activator of transcription 3 (Homo sapiens) (P40763 whole entry): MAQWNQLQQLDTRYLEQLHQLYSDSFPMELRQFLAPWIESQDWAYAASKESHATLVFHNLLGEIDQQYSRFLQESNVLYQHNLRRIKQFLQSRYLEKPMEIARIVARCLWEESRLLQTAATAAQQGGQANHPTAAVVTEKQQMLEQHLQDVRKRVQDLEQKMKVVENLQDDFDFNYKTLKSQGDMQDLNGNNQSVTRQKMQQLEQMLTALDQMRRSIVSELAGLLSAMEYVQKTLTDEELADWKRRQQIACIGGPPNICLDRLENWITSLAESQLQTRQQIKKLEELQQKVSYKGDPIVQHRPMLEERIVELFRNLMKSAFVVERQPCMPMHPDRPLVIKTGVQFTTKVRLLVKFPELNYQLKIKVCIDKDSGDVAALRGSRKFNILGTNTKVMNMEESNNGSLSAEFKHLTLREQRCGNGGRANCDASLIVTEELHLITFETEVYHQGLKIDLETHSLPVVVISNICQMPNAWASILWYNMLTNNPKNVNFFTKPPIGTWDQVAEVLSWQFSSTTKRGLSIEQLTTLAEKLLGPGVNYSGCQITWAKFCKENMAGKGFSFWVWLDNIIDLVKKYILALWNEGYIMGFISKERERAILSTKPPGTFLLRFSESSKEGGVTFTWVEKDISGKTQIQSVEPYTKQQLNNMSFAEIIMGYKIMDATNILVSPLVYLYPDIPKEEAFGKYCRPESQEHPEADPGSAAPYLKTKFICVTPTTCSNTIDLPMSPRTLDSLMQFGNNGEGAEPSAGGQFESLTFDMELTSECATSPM

Row | SMILES | IC50 (MDA-MB-231 [1]) | IC50 (MDA-MB-468 [2]) | IC50 at 48 h [3] | IC50 (L02) | other results
1 | CC(=O)c1cc2c(o1)C(=O)C(=O)c1ccccc1-2 | 1.43 µM | 2.51 µM | 6.23 µM | 7.25 µM | 
2 | CNC(=O)[C@H](Cc1ccccc1)N1CCc2c(oc3c2C(=O)C(=O)c2ccccc2-3)C1 | 8.12 µM | 8.05 µM |  |  | 
3 | O=C1C(=O)c2c(oc3c2CCN(C(=O)c2ccc(Cl)cc2)C3)-c2ccccc21 | 13 µM | 10.7 µM |  |  | 
4 | O=C1C(=O)c2c(oc3c2CCN(C(=O)c2cccs2)C3)-c2ccccc21 | > 20 µM | 12.9 µM |  |  | 
5 | O=C1C(=O)c2c(oc3c2CCN(C(=O)c2ccc(F)cc2)C3)-c2ccccc21 | 10.9 µM | 12 µM |  |  | 
6 | O=C1C(=O)c2c(oc3c2CCN(C(=O)c2ccc(C(F)(F)F)cc2)C3)-c2ccccc21 | 14.7 µM | 14.7 µM |  |  | 
7 | COC(=O)[C@H](Cc1ccccc1)N1CCc2c(oc3c2C(=O)C(=O)c2ccccc2-3)C1 | 8.26 µM | 11.4 µM |  |  | 
8 | O=C1C(=O)c2c(oc3c2CCNC3)-c2ccccc21 | 7.11 µM | 9.23 µM |  |  | 
9 | COC(=O)[C@H](Cc1ccc(O)cc1)N1CCc2c(oc3c2C(=O)C(=O)c2ccccc2-3)C1 | 7.26 µM | 14.3 µM |  |  | 
10 | O=C1C(=O)c2c(oc3c2CCN([C@H](CO)Cc2ccccc2)C3)-c2ccccc21 | 9.97 µM | > 10 µM |  |  | 
11 | CN(C)c1ccc(C(=O)N2CCc3c(oc4c3C(=O)C(=O)c3ccccc3-4)C2)cc1 | > 20 µM | > 20 µM | > 20 µM | > 20 µM | 
12 | CN1CCN(C(=O)N2CCc3c(oc4c3C(=O)C(=O)c3ccccc3-4)C2)CC1 | 6.08 µM | 5.84 µM |  |  | 
13 | CNC(=O)[C@H](Cc1ccc(O)cc1)N1CCc2c(oc3c2C(=O)C(=O)c2ccccc2-3)C1 | 7.26 µM | 10.4 µM |  |  | 
14 | CC(C)C[C@@H](CO)N1CCc2c(oc3c2C(=O)C(=O)c2ccccc2-3)C1.Cl |  |  |  |  | half-life [6]: 6.5 h; half-life [7]: 17.2 h; half-life [8]: 17.2 h; AUC(0-t) at 24 h [9]: 107 ng·h/mL; AUC(0-t) at 24 h [10]: 571 ng·h/mL; AUC(0-t) at 24 h [11]: 490 ng·h/mL; AUC(0-inf) [12]: 106 ng·h/mL; AUC(0-inf) [13]: 523 ng·h/mL; AUC(0-inf) [14]: 493 ng·h/mL; Cmax [15]: 78.4 ng/mL; Cmax [16]: 272 ng/mL; Cmax [17]: 972 ng/mL; Tmax [18]: 0.4 h; Tmax [19]: 0.1 h; Tmax [20]: 4.8 min; bioavailability [21]: 10.9%
15 | COc1ccc(C(=O)N2CCc3c(oc4c3C(=O)C(=O)c3ccccc3-4)C2)cc1 | 17.3 µM | > 20 µM |  |  | 
16 | O=C1C(=O)c2c(oc3c2CCN([C@H](CO)Cc2ccc(O)cc2)C3)-c2ccccc21 | 13.6 µM | 13 µM |  |  | 
17 | O=C1C(=O)c2c(oc3c2CCN(C(=O)c2ccccc2)C3)-c2ccccc21 | 5.71 µM | 6.86 µM | 19.2 µM | > 20 µM | 
18 | O=C1C(=O)c2c(oc3c2CCN(C(=O)c2cccc(C(F)(F)F)c2)C3)-c2ccccc21 | 12.5 µM | > 20 µM |  |  | 
19 | C[C@H]1COC2=C1C(=O)C(=O)c1c2ccc2c1CCCC2(C)C [CRYPTOTANSHINONE] | > 20 µM | > 20 µM | > 20 µM | > 20 µM | 
20 | O=C1C(=O)c2c(oc3c2CCN(C(=O)N2CCOCC2)C3)-c2ccccc21 | 6.43 µM | 5.41 µM | 16.8 µM | > 20 µM | 
21 | N#Cc1ccc(C(=O)N2CCc3c(oc4c3C(=O)C(=O)c3ccccc3-4)C2)cc1 | 14.8 µM | 12.6 µM |  |  | 
22 | COC(=O)CC[C@@H](C(=O)OC)N1CCc2c(oc3c2C(=O)C(=O)c2ccccc2-3)C1 | 12.7 µM | 12.2 µM |  |  | 
23 | O=C1C(=O)c2c(oc3c2CCN(C(=O)c2cccnc2)C3)-c2ccccc21 | 5.86 µM | 5.89 µM | 9.35 µM | 13.3 µM | 
24 | COc1ccc(C(=O)N2CCc3c(oc4c3C(=O)C(=O)c3ccccc3-4)C2)cc1OC | 4.59 µM | 5.82 µM | 7.96 µM | 7.43 µM | 

More lines, main results first:

Row | IC50 (MDA-MB-231 [1]) | IC50 (MDA-MB-468 [2]) | SMILES | IC50 at 48 h [3] | IC50 (L02) | other results
25 | 6.89 µM | 9.12 µM | COC(=O)CCCN1CCc2c(oc3c2C(=O)C(=O)c2ccccc2-3)C1 |  |  | 
26 | 6.41 µM | 9.48 µM | O=C1C(=O)c2c(oc3c2CCN(CCCCO)C3)-c2ccccc21 |  |  | 
27 | 3.14 µM | 2.36 µM | COC(=O)[C@H](C)N1CCc2c(oc3c2C(=O)C(=O)c2ccccc2-3)C1 | 18.2 µM |  | inhibition [4]: inactive; inhibition [5]: inactive
28 | 5.72 µM | 4.13 µM | COC(=O)CCN1CCc2c(oc3c2C(=O)C(=O)c2ccccc2-3)C1 | 4.55 µM | 8.51 µM | 
29 | 7.99 µM | 7.36 µM | CNC(=O)[C@H](CC(C)C)N1CCc2c(oc3c2C(=O)C(=O)c2ccccc2-3)C1 |  |  | 
30 | 6.51 µM | 4.78 µM | CNC(=O)CN1CCc2c(oc3c2C(=O)C(=O)c2ccccc2-3)C1 |  |  | 
31 | > 20 µM | > 20 µM | COC(=O)[C@H](CC(C)C)N1CCc2c(oc3c2C(=O)C(=O)c2ccccc2-3)C1 |  |  | 
32 | 1.19 µM | 1.57 µM | O=C1C(=O)c2c(oc3c2CCN(CCO)C3)-c2ccccc21 | 2.89 µM | 3.91 µM | inhibition [4]: Active; inhibition [5]: Active; half-life [6]: 4 h; half-life [7]: 3.5 h; half-life [8]: 2.4 h; AUC(0-t) at 24 h [9]: 47.2 ng·h/mL; AUC(0-t) at 24 h [10]: 219 ng·h/mL; AUC(0-t) at 24 h [11]: 611 ng·h/mL; AUC(0-inf) [12]: 50.1 ng·h/mL; AUC(0-inf) [13]: 241 ng·h/mL; AUC(0-inf) [14]: 645 ng·h/mL; Cmax [15]: 34.4 ng/mL; Cmax [16]: 107 ng/mL; Cmax [17]: 237 ng/mL; Tmax [18]: 1.1 h; Tmax [19]: 0.7 h; Tmax [20]: 4.8 min; bioavailability [21]: 3.8%
33 | 12.4 µM | 12.9 µM | O=C1C(=O)c2c(oc3c2CCN(C(=O)c2ccco2)C3)-c2ccccc21 |  |  | 
34 | 7.45 µM | 9.45 µM | CNC(=O)CCCN1CCc2c(oc3c2C(=O)C(=O)c2ccccc2-3)C1 |  |  | 
35 | 14.2 µM | 16.9 µM | Cc1ccc(C(=O)N2CCc3c(oc4c3C(=O)C(=O)c3ccccc3-4)C2)cc1 |  |  | 
36 | 2.5 µM | 2.42 µM | COC(=O)CN1CCc2c(oc3c2C(=O)C(=O)c2ccccc2-3)C1 | 4.89 µM | 5.46 µM | 
37 | 4.57 µM | 3.89 µM | CC(=O)N1CCc2c(oc3c2C(=O)C(=O)c2ccccc2-3)C1 | 17.8 µM | 16.6 µM | inhibition [4]: Active; inhibition [5]: Active
38 | 2.3 µM | 2.32 µM | O=C1C(=O)c2c(oc3c2CCN(CCCO)C3)-c2ccccc21 | 11.1 µM | 15.5 µM | inhibition [4]: Active; inhibition [5]: Active; Activity (MDA-MB-231 [22]): Active; Activity (MDA-MB-468 [23]): Active
39 | 3.41 µM | 5.42 µM | C[C@@H](CO)N1CCc2c(oc3c2C(=O)C(=O)c2ccccc2-3)C1 | 7.98 µM | 7.87 µM | inhibition [4]: Active; inhibition [5]: Active
40 | 4 µM | 2.35 µM | CN(C)C(=O)N1CCc2c(oc3c2C(=O)C(=O)c2ccccc2-3)C1 | > 20 µM | > 20 µM | inhibition [4]: Active; inhibition [5]: Active; Activity (MDA-MB-231 [22]): Active; Activity (MDA-MB-468 [23]): Active
41 | 4.5 µM | 3.6 µM | CNC(=O)CCN1CCc2c(oc3c2C(=O)C(=O)c2ccccc2-3)C1 | 11 µM | 12.5 µM | inhibition [4]: Active; inhibition [5]: Active; Activity (MDA-MB-231 [22]): Active; Activity (MDA-MB-468 [23]): Active
42 | 4.14 µM | 6.41 µM | CNC(=O)[C@H](C)N1CCc2c(oc3c2C(=O)C(=O)c2ccccc2-3)C1 | 17.6 µM | > 20 µM | inhibition [4]: Active; inhibition [5]: Active; Activity (MDA-MB-231 [22]): Active; Activity (MDA-MB-468 [23]): Active
